Experimental data: patent publication US11278525B1, “Further molecules, compositions and methods for modulation of SIRT6” (SirTLab Corporation, priority 2017, dated 2022)

Molecular target: SIRT6 (Homo sapiens, UniProt Q8N6T7)
Assay: SIRT6 enzymatic activity assay with fluorophore (AMC)-labeled Lysin-myristoylated histone H3 peptide (de-myristoylation, trypsin release)
Type: biochemical
Design: six-histidine tag; made in house; host or cells: Escherichia coli BL21
Settings: for % Activity: amount tested 20 uM, Example 5, Table 9; for % activity 20 uM: compound 20 uM; for % activity 20 uM / % activity Max. conc. 100 uM: percentage of signal increase relative to control wells, Tables 1-2; for % activity Max. conc. 100 uM: compound 100 uM
Protocol: Human recombinant SIRT6 (sequence identifier: CAG33481.1; GI:4814651) was expressed in large scale in Escherichia coli strain BL21 as a six-histidine-tagged protein, after transformation of the expression plasmid pET28-SIRT6. The SIRT6 enzyme was purified from the bacteria culture broth in a two-step strategy. The first purification step was carried out by cation exchange chromatography on a HiTrap CM-Sepharose column (GE Healthcare) using an FPLC system. The second purification step was performed by immobilized metal ion affinity chromatography (IMAC) using a cobalt affinity column (Clontech).
The enzymatic activity assay is carried out in 96 or 384-well microplates using the purified recombinant SIRT6 and a fluorophore-labeled peptide substrate: 7-amino-4-methylcoumarin (AMC) that is quenched through conjugation to the C-terminal end of a Lysin-myristoylated histone H3 peptide. The activity assay procedure requires two steps, both performed in the same microplate. In the first step, the substrate is incubated with the purified SIRT6 protein along with the co-substrate nicotinamide adenine dinucleotide (NAD+). Upon de-myristoylation, the liberated ε-amino group of the lysine becomes a trypsin substrate. Treatment with trypsin in the second step releases the fluorophore resulting in an increase in fluorescence. Fluorescence intensity is measured using a fluorescent plate reader (excitation and emission at 370 nm and 450 nm, respectively). The fluorescence signal is directly proportional to SIRT6 enzymatic activity.
In the primary screening, compounds from a library (ChemDiv Inc.) were tested at a single concentration of 20 micromolar for their potential to modulate SIRT6 enzymatic activity. The assay was carried out in 384-well black well plates and all liquid handling was done using a robotic liquid handler. Purified recombinant SIRT6 (1 micromolar) was pre-incubated with each compound (or DMSO in control wells) for 15 minutes at room temperature. The first stage of the assay was initiated by adding a ‘substrate solution’ containing the myristoylated histone H3 peptide and NAD+(for final concentrations of 25 micromolar and 20 micromolar, respectively). After one hour incubation at 37° C., a Trypsin solution (6 mg/mL) was added for 30 minutes at room temperature. Fluorescence intensity was measured using a fluorescent plate reader (Tecan) with excitation at 370 nm and emission at 450 nm. The effect of each tested compound was evaluated by the change in the fluorescence intensity compared to control wells. […] To validate the primary screening results, each of the primary “hits” was re-tested, first at concentration of 20 micromolar in duplicates and later at a serial dilution ranging from 100 to 0.2 micromolar in triplicates.
Results of Assay—The results of the assay are given below in Tables 1-3.
Additional molecules were tested according to the methods and materials of Example 1. The amount tested was 20 uM for each molecule.

SIRT6, sequence (Q8N6T7 whole entry): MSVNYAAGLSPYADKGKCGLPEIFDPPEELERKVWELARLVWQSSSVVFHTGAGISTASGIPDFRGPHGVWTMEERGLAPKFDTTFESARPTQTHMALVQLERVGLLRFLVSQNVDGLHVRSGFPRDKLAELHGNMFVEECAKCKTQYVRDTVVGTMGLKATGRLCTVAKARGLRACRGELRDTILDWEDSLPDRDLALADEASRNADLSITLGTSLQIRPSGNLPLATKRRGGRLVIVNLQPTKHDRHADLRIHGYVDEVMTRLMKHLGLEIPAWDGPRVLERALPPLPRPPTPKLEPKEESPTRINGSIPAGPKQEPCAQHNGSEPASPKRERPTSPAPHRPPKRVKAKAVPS

| % Activity [%] | % activity 20 uM [%] | % activity Max. conc. 100 uM [%] | Structure (SMILES) |
| --- | --- | --- | --- |
| 60 |  |  | CNC(=O)N1CCc2c(sc3ncnc(NCCCOC)c23)C1 [S324-0365] |
| 80 |  |  | CN(C)C(=O)C1CCN(c2nc3ccc(-c4cncnc4)nc3s2)CC1 [T387-0950] |
|  | 42 | 35 | C=C1Cc2c(cccc2CC)C=C1c1csc(NC(=O)CCC(=O)NCCCN2CCC(C)CC2)n1 [K232-1782] |
|  |  | 111 | COCCNc1oc2c(c1-c1ccc(C)cc1)c(=O)oc1c(C)cccc12 [F025-0102] |
| 273 |  |  | CCC(=O)Oc1ccc2c(C)c(Cc3ccccc3)c(=O)oc2c1C [2259-4063] |
| 28 |  |  | CN(C)CCCN(C(=O)CCOc1ccccc1)c1nc2ccc(Br)cc2s1 [E677-0691] |
| 30 |  |  | CCNC(=O)N1CCc2c(sc3ncnc(NCC)c23)C1 [S324-0342] |
|  |  | 94 | CC1=NCC(c2ccc(O)cc2O)=C1c1ccc(Cl)cc1 [8020-1200] |
|  |  | 47 | Cc1cc(NC(=O)CSc2nnc(-c3sc4ncccc4c3N)n2C)ccc1Cl [D549-0050] |
| 137 |  |  | CC(=O)Oc1ccc2c(C)c(Cc3ccccc3)c(=O)oc2c1C [2259-4062] |
| 41 |  |  | Cc1c(OC(=O)c2ccccc2)ccc2c3c(c(=O)oc12)CCC3 [4986-0081] |
|  | 52 | 52 | CCOC(=O)C1CCCN(S(=O)(=O)c2ccc(-c3ccc(N4CCOCC4)nn3)s2)C1 (centres unmarked) [K906-5001] |
| 27 |  |  | COC(=O)c1ccccc1NC(=O)Cn1c(S(=O)(=O)Cc2ccccc2)nc2ccccc21 [7398-1534] |
| 88 |  |  | O=C(CSc1nc2ncccc2n2cccc12)NCc1ccco1 [G117-0491] |
|  |  | 45 | N#Cc1cccc(-c2cn3c(n2)N(C(=O)c2ccncc2)CCC3)c1 [P950-0537] |
|  | 62 | 92 | CCC(=O)Nc1ccc(-c2cc(C(=O)NCCCN3CCCCCC3)c3ccccc3n2)cc1 [L036-0162] |

| % Activity [%] | % activity 20 uM [%] | % activity Max. conc. 100 uM [%] | Structure (SMILES) |
| --- | --- | --- | --- |
|  |  | 59 | Cc1nc2sc(-c3nc4ccccc4[nH]3)c(N)c2c(C)c1Cl [8012-5593] |
| 28 |  |  | CN(C)CCCN(C(=O)CCOc1ccccc1)c1nc2ccc(Cl)cc2s1 [B677-0564] |
|  | 51 | 56 | CC(C)Cn1c(=O)c(-c2ccc(C(=O)N3CCN(c4ccccc4)CC3)cc2)nc2ccccc21 [M049-1557] |
| 53 |  |  | CN(C)CCCN(C(=O)CCS(=O)(=O)c1ccccc1)c1nc2ccc(F)cc2s1 [E677-0508] |
|  |  | 25 | CCc1nnc(NC(=O)CSc2nc(N)nc(SC)c2C#N)s1 [8001-8196] |
|  |  | 226 | C=C1Oc2ccc(C)cc2-c2oc(NCCOC)c(-c3ccc(OCC)cc3)c21 [F025-0098] |
| 95 |  |  | COc1cc(C(=O)Oc2ccc3c4c(c(=O)oc3c2)CCCC4)cc(OC)c1OC [Y040-2478] |
| 455 |  |  | O=C(Oc1ccc2c3c(c(=O)oc2c1)CCC3)c1cccs1 [2712-4058] |
| 70 |  |  | Cc1ccc2sc(N(CCCN(C)C)C(=O)CCS(=O)(=O)c3ccccc3)nc2c1C [E677-2159] |
|  |  | 56 | CC[C@H]1O[C@@H](Cc2ccc3c(c2C)CC(=O)C(C)=C3C)[C@H](C)[C@@H](O)[C@H]1C [D715-0292] |
| 30 |  |  | COC(=O)COc1cccc2c1ccc1c3c(c(=O)oc12)CCCC3 [3532-0820] |
| 40 |  |  | CCCc1ccc(-c2ccc(C(=O)Nc3nc4ccc(C)cc4s3)cc2)nc1 [0703-6407] |
| 237 |  |  | Cc1c(C)c2ccc(OC(=O)C3CCCCC3)c(C)c2oc1=O [Y040-1862] |
|  |  | 197 | C=C1Nc2nc(OC(C)=O)c(C)c(C)c2S1 [8018-4551] |
|  |  | 110 | CCC(=O)Nc1ccc(-c2cc(C(=O)NCCCN3CCCCC3C)c3ccccc3n2)cc1 (centres unmarked) [L036-0163] |

The remaining lines, values behind:

| Structure (SMILES) | % Activity [%] | % activity 20 uM [%] | % activity Max. conc. 100 uM [%] |
| --- | --- | --- | --- |
| Cc1c(Cc2ccccc2)c(=O)oc2c(C)c(OC(=O)C3CCCCC3)ccc12 [Y040-7709] | 145 |  |  |
| Cc1ccc(C(=O)Oc2ccc3c4c(c(=O)oc3c2C)CCC4)cc1 [Y040-4193] | 53 |  |  |
| CCCCCCc1c(C)c2cc(C)c(OC(=O)c3cccc(OC)c3)cc2oc1=O [Y040-7591] | 63 |  |  |
| Cc1ccc(COc2ccc3c4c(c(=O)oc3c2C)CCC4)cc1 [3338-2074] | 21 |  |  |
| O=C(Nc1ccc2nnc(C3CCC3)n2c1)C1CC1 [M723-1459] |  |  | 142 |
| C=C(Nc1cc(C)cc(C)c1)Nc1nnc(SCC2=CC(=C)N3C=C(C)C=CC3=N2)s1 [G755-0539] |  | 34 | 87 |
| O=C(C1CCN(c2nc3ccc(-c4cncnc4)nc3s2)CC1)N1CCCC1 [T387-0947] | 40 |  |  |
| C=C(CN1c2ccccc2C(C)(C)C12C=Cc1c(ccc3ccccc13)C2)NC (centres unmarked) [8008-8279] |  |  | 27 |
| CCN(CC)CCN(C(=O)CCOc1ccccc1)c1nc2c(F)cc(F)cc2s1 [E676-5517] | 38 |  |  |
| Cc1c(Cc2ccccc2)c(=O)oc2c(C)c(OC(=O)C3CC3)ccc12 [Y040-1980] | 30 |  |  |
| C=C(Oc1ccc2cnccc2c1)c1sc2ccccc2c1N [G891-0058] |  | 154 | 324 |
| O=C(c1ccccc1Br)N1C(=O)c2ccccc2S1(=O)=O [8006-3826] | 56 |  |  |
| Cc1cc(C)c2sc(N(Cc3cccnc3)C(=O)CCS(=O)(=O)c3ccccc3)nc2c1 [G856-7064] | 61 |  |  |
| Cc1ccccc1C1N=C2C=NC=CN2C1NCCC(=O)NCc1cccs1 (centres unmarked) [P349-2111] | 84 |  |  |
| COc1ccc(C)c2sc(N(CCN(C)C)C(=O)CCS(=O)(=O)c3ccccc3)nc12 [E676-2540] | 59 |  |  |
| O=C(C1=CC=CC1)n1nc(-c2ccccc2)nc1NCc1ccco1 [6855-0211] | 77 |  |  |
| CN(C)CCNC(=O)C1CCN(c2nc3ccc(-c4cccnc4)nc3s2)CC1 [T387-1019] | 31 |  |  |
| CCOCCCNc1nc2ccccc2nc1S(=O)(=O)Cc1ccc(Cl)cc1 [L103-0696] |  | 91 | 159 |
| COc1cccc(C(=O)Oc2ccc3c4c(c(=O)oc3c2C)CCCC4)c1 [Y040-0750] | 33 |  |  |
| Cc1ccccc1C(=O)Oc1ccc2c3c(c(=O)oc2c1)CCC3 [2712-4063] | 61 |  |  |
| CCCCCCc1c(C)c2cc3c(-c4ccc(F)cc4)coc3c(C)c2oc1=O [Y041-6500] | 21 |  |  |
| Cc1noc(-c2cccc(OC3CN(C(=O)c4cccc5[nH]ccc45)C3)c2)n1 [S051-0094] |  |  | 47 |
| CC1=CC(C)(C)Nc2ccc(OC(=O)c3cccs3)cc21 [4477-2607] |  |  | 54 |
| CCOc1ccccc1C(=O)Oc1ccc2c3c(c(=O)oc2c1)CCCC3 [Y040-4190] | 168 |  |  |
| Cc1ccc(NC(=O)c2nnc(-c3ccc(NC(=O)c4cccs4)cc3)s2)cc1 [F498-0132] |  |  | 16 |
| Cc1nc(-c2cccc(C(F)(F)F)c2)c(N)c(N(C)C2CCN(C)CC2)n1 [V030-4109] |  |  | 255 |
| N#Cc1c(N)oc(C2=CC=CC2)c1-c1ccco1 [8014-9229] |  |  | 48 |
| CCC(=O)Nc1nc2c(OC)cc(NC(=O)c3ccccc3OC)cc2s1 [F259-0462] | 117 |  |  |
| CN(C)C(=O)c1ccc(-c2ccc(N3CCCCC3)nc2)cc1 [M715-0112] |  | 40 | 54 |
